Legend:
[1] = target: Muscarinic acetylcholine receptor
[2] = target: Muscarinic acetylcholine receptor; remark: listed apart in the source
[3] = target: Muscarinic acetylcholine receptor; remark: listed apart in the source
[4] = target: Muscarinic acetylcholine receptor; remark: listed apart in the source
[5] = target: Muscarinic acetylcholine receptor; remark: listed apart in the source
[6] = target: Muscarinic acetylcholine receptor; remark: listed apart in the source
[7] = target: Muscarinic acetylcholine receptor; remark: listed apart in the source
[8] = target: Muscarinic acetylcholine receptor; remark: listed apart in the source
[9] = target: Muscarinic acetylcholine receptor; remark: listed apart in the source
[10] = target: Muscarinic acetylcholine receptor; remark: listed apart in the source
[11] = target: Muscarinic acetylcholine receptor; remark: listed apart in the source
[12] = target: Muscarinic acetylcholine receptor; remark: listed apart in the source
[13] = target: Muscarinic acetylcholine receptor; remark: listed apart in the source
[14] = target: Muscarinic acetylcholine receptor; remark: listed apart in the source
[15] = target: Muscarinic acetylcholine receptor; remark: listed apart in the source
[16] = target: Muscarinic acetylcholine receptor; remark: listed apart in the source
[17] = target: Muscarinic acetylcholine receptor; remark: listed apart in the source
[18] = target: Muscarinic acetylcholine receptor; remark: listed apart in the source
[19] = target: Muscarinic acetylcholine receptor; remark: listed apart in the source
[20] = target: Muscarinic acetylcholine receptor; remark: listed apart in the source
[21] = target: Muscarinic acetylcholine receptor; type: tissue-based, Rattus norvegicus, Hippocampus
[22] = target: Muscarinic acetylcholine receptor; remark: listed apart in the source
[23] = target: Muscarinic acetylcholine receptor; remark: listed apart in the source
[24] = target: Muscarinic acetylcholine receptor; remark: listed apart in the source
[25] = target: Muscarinic acetylcholine receptor; remark: listed apart in the source
[26] = target: Muscarinic acetylcholine receptor; type: tissue-based, Rattus norvegicus, Hippocampus; remark: listed apart in the source
[27] = target: Muscarinic acetylcholine receptor; set-up: species or system Rattus norvegicus
[28] = target: Muscarinic acetylcholine receptor; remark: listed apart in the source
[29] = target: Muscarinic acetylcholine receptor; remark: listed apart in the source
[30] = target: Muscarinic acetylcholine receptor; remark: listed apart in the source
[31] = target: Muscarinic acetylcholine receptor; remark: listed apart in the source
[32] = target: Muscarinic acetylcholine receptor; remark: listed apart in the source
[33] = target: Muscarinic acetylcholine receptor; remark: listed apart in the source
[34] = target: Muscarinic acetylcholine receptor; remark: listed apart in the source
[35] = target: Muscarinic acetylcholine receptor; remark: listed apart in the source
[36] = target: Muscarinic acetylcholine receptor; remark: listed apart in the source
[37] = target: Muscarinic acetylcholine receptor; remark: listed apart in the source
[38] = target: Muscarinic acetylcholine receptor; remark: listed apart in the source
[39] = target: Muscarinic acetylcholine receptor; remark: listed apart in the source
[40] = target: Muscarinic acetylcholine receptor; remark: listed apart in the source
[41] = target: Muscarinic acetylcholine receptor; remark: listed apart in the source
[42] = target: Muscarinic acetylcholine receptor; remark: listed apart in the source
[43] = target: Muscarinic acetylcholine receptor; remark: listed apart in the source
[44] = target: Muscarinic acetylcholine receptor; remark: listed apart in the source
[45] = target: Muscarinic acetylcholine receptor; remark: listed apart in the source
[46] = target: Muscarinic acetylcholine receptor; type: tissue-based, Rattus norvegicus, Hippocampus; remark: listed apart in the source
[47] = target: Muscarinic acetylcholine receptor; remark: listed apart in the source
[48] = target: Muscarinic acetylcholine receptor; remark: listed apart in the source
[49] = target: Muscarinic acetylcholine receptor; remark: listed apart in the source
[50] = target: Muscarinic acetylcholine receptor; remark: listed apart in the source
[51] = target: Muscarinic acetylcholine receptor; remark: listed apart in the source
[52] = target: Muscarinic acetylcholine receptor; remark: listed apart in the source
[53] = target: Muscarinic acetylcholine receptor; set-up: species or system Rattus norvegicus; remark: listed apart in the source
[54] = target: Muscarinic acetylcholine receptor; remark: listed apart in the source
[55] = target: Muscarinic acetylcholine receptor; remark: listed apart in the source
[56] = target: Muscarinic acetylcholine receptor; remark: listed apart in the source
[57] = target: Muscarinic acetylcholine receptor; remark: listed apart in the source
[58] = target: Muscarinic acetylcholine receptor; remark: listed apart in the source
[59] = target: Muscarinic acetylcholine receptor; remark: listed apart in the source
[60] = target: Muscarinic acetylcholine receptor; remark: listed apart in the source

CCN(CC)CC1CCCCN1CC(=O)N1c2ccccc2C(=O)Nc2cccnc21 (stereo not given) [OTENZEPAD]
IC50 [1]: 1400 nM
IC50 [2]: 320 nM
IC50 [3]: 840 nM
IC50 [4]: 2900 nM
IC50 [5]: 4300 nM
IC50 [6]: 9800 nM
IC50 [7]: 1900 nM
IC50 [8]: 3200 nM
IC50 [9]: 250 nM
IC50 [10]: 240 nM
IC50 [11]: 260 nM
IC50 [12]: 620 nM
IC50 [13]: 690 nM
IC50 [14]: 490 nM
IC50 [15]: 310 nM
IC50 [16]: 6500 nM
IC50 [17]: 260 nM
IC50 [18]: 1500 nM
IC50 [19]: 720 nM
IC50 [20]: 310 nM
IC50 [21]: 6100 nM
IC50 [22]: 7300 nM
IC50 [23]: 4900 nM
IC50 [24]: 430 nM
IC50 [25]: 580 nM
IC50 [26]: 3200 nM
IC50 [27]: 1600 nM
IC50 [28]: 1300 nM
IC50 [29]: 2100 nM
IC50 [30]: 1200 nM
IC50 [31]: 310 nM
IC50 [32]: 860 nM
IC50 [33]: 250 nM
IC50 [34]: 420 nM
IC50 [35]: 1400 nM
IC50 [36]: 4300 nM
IC50 [37]: 1300 nM
IC50 [38]: 230 nM
IC50 [39]: 14000 nM
IC50 [40]: 300 nM
IC50 [41]: 460 nM
IC50 [42]: 2100 nM
IC50 [43]: 7000 nM
IC50 [44]: 1000 nM
IC50 [45]: 5800 nM
IC50 [46]: 6300 nM
IC50 [47]: 610 nM
IC50 [48]: 960 nM
IC50 [49]: 490 nM
IC50 [50]: 2000 nM
IC50 [51]: 420 nM
IC50 [52]: 1800 nM
IC50 [53]: 4000 nM
IC50 [54]: 570 nM
IC50 [55]: 580 nM
IC50 [56]: 2300 nM
IC50 [57]: 1700 nM
IC50 [58]: 790 nM
IC50 [59]: 1000 nM
IC50 [60]: 680 nM

Source: ChEMBL document CHEMBL1124477, “Regional differences in the binding of selective muscarinic receptor antagonists in rat brain: comparison with minimum-energy conformations” (J Med Chem, 1989)
